Assay results: PMC7935113, “Development and in vivo evaluation of intranasal formulations of parathyroid hormone (1-34)” (Drug Delivery, 2021)
Read-outs that look alike come from different tables or passages of the source.

Experiments:
[1] = Chemical stability of PTH(1-34) in aqueous buffer solutions at 40 °C (HPLC); assay type: physicochemical
Method: HPLC measurements were performed with an HPLC instrument equipped with a photodiode array detector. A C-18 column (Cosmosil 250 × 4.6 mm, 5 µm, Japan) was used, and the sample solutions were applied via an autosampler (Merck-Hitachi, Darmstadt, Germany). Analysis of PTH(1-34) and its degradation products was performed under the following conditions. Mobile phase A was 0.1% (v/v) TFA in acetonitrile, and mobile phase B was 0.1% TFA (v/v) in water. […] A detection wavelength of 214 nm and column temperature of 25 °C were used.
Stability studies were carried out to clarify the influence of aqueous solvent on the stability of PTH(1-34) during storage and to determine the optimal aqueous environment. First, PBS and ABS were prepared as solvent solutions: 0.063 M PBS was prepared by dissolving 3.73 g sodium dihydrogen phosphate and 36.55 g disodium hydrogen phosphate in 1000 mL Milli-Q water; 0.032 M ABS was prepared as by dissolving 0.664 g glacial acetic acid and 1.64 g sodium acetate trihydrate together in 1000 mL Milli-Q water. Then, 0.016 M ABS, 0.008 M ABS, and 0.004 M ABS were prepared by diluting 0.032 M ABS with Milli-Q water. Following preparation, the pH values of the PBS and ABS solutions were measured using a pH meter (Mettler Toledo FiveEasy Plus).
To examine the stability of peptides in each aqueous medium, 3 mg/mL PTH(1-34) was separately incubated in 0.063 M PBS, 0.032 M ABS, 0.016 M ABS, 0.008 M ABS and 0.004 M ABS. Aliquots of PTH(1-34) were individually incubated at 40 °C, and the PTH(1-34) content was analyzed at 0, 6, 12, 24, 36, 48, 60 and 72 h postincubation. In addition, the impurities of PTH(1-34) in the 0.032 M ABS, 0.016 M ABS, 0.008 M ABS and 0.004 M ABS solutions were quantified by HPLC at the time points of 0, 24, 72 and 120 h postincubation at 40 °C.

[2] = Isoelectric point by capillary electrophoresis; assay type: physicochemical; conditions: authors' previous capillary electrophoresis (CE) analysis, no reference given
Text: The essential point for the development of a liquid PTH(1-34) formulation was ensuring the stability of PTH(1-34). In this context, the aqueous environment was screened by utilizing MD simulations and HPLC analysis. In recent decades, MD simulations have been increasingly reported to investigate the conformational equilibria of polypeptides in solution (Colombo et al., [2002]). […] The HPLC analysis results further confirmed that PTH(1-34) had the best chemical stability in 0.008 M ABS. According to our previous capillary electrophoresis (CE) analysis, the isoelectric point (pI) of PTH(1-34) is approximately pH 7.77, indicating easy solubility and stability under acidic condition. The pH values of PBS and ABS were 7.4 and 4.0, respectively. Consequently, 0.008 M ABS had the best stability performance, most likely due to its acidic pH value and low ionic strength.

[3] = system: HNEpC layers; test: Permeability of FITC-PTH across HNEpC layers (Transwell); assay type: in vitro ADME, human; conditions: HNEpC monolayer, apical to basolateral, 10 μg/mL FITC-PTH, all tested concentrations (0.015%, 0.010% and 0.005%), fluorescence
Method: […] were seeded at a density of 10 × 10^4 cells/well on Transwell® supports with a pore size of 0.4 μm. TEER (Ω·cm^2) was determined using a Millicell electrical resistance system (ERS) voltohmmeter (Millipore, Bedford, MA, USA). Cell monolayers with TEER values exceeding 500 Ω·cm^2 were used for further experiments. […] Prior to the permeability experiment, the cell monolayers were equilibrated with 1.0 mL Hank's balanced salt solution (HBSS) in the basolateral compartment and 0.4 mL culture medium in the apical chamber for 30 min. Subsequently, the apical culture medium was withdrawn, and 0.2 mL solution of a test solution was applied. Thereafter, 200 μL receiver samples from the basolateral compartment were taken every 30 min for 4 h, and then, 200 μL fresh HBSS was added to the basolateral compartment.

[4] = system: HNEpC monolayers; test: Effect of permeation enhancers on TEER of HNEpC monolayers; assay type: cell-based, human; conditions: HNEpC monolayer, apical application, all solutions (0.005%, 0.010%, 0.015%), n = 8
Method: HNEpCs were seeded at a density of 10 × 10^4 cells/well on Transwell® supports with a pore size of 0.4 μm. TEER (Ω·cm^2) was determined using a Millicell electrical resistance system (ERS) voltohmmeter (Millipore, Bedford, MA, USA). Cell monolayers with TEER values exceeding 500 Ω·cm^2 were used for further experiments. […] Prior to the permeability experiment, the cell monolayers were equilibrated with 1.0 mL Hank’s balanced salt solution (HBSS) in the basolateral compartment and 0.4 mL culture medium in the apical chamber for 30 min. Subsequently, the apical culture medium was withdrawn, and 0.2 mL solution of a test solution was applied. Thereafter, 200 μL receiver samples from the basolateral compartment were taken every 30 min for 4 h, and then, 200 μL fresh HBSS was added to the basolateral compartment. Finally, the FITC-PTH concentration in the collected samples was analyzed using a Varioskan LUX multimode microplate reader with ex/em 485/518 nm.
HNEpC monolayers were cultured as described above. The baseline TEER was measured before the experiment for 60 min. […] A chitosan solution at 0.003% w/v in culture medium was used as a positive control. The results for each experiment are presented as percentages relative to their respective baseline TEER.

[5] = system: HNEpCs; test: Cellular internalization of FITC-PTH; assay type: cell-based, human
Method: A 20 μg/mL FITC-PTH solution without any permeation enhancer was used as a negative control, and a 20 μg/mL FITC-PTH solution supplemented with 0.1% Triton X-100 was used as a positive control. The test solutions were added to the corresponding wells, and the amount of cellularly internalized PTH was measured after 30 min following sample applications. […] Finally, the cells were lysed with cell lysis buffer. The resulting lysis products were collected for fluorescence measurement and protein content measurement. The fluorescence measurement was carried out using a Varioskan LUX multimode microplate reader with ex/em 485/518 nm, and the protein content was measured by using a commercial BCA protein assay kit (Solarbio Life Sciences). The amount of internalized PTH(1-34) in each well was normalized to the protein content.

[6] = system: Human nasal epithelial cells (HNEpCs); conditions: MTT, n = 8
Method: Human nasal epithelial cells (HNEpCs) purchased from the American Type Culture Collection (Rockville, MD, USA) were used as an in vitro model of the nasal mucosa. The cells were cultured in culture medium (Eagle’s minimum essential medium (MEM) supplemented with 10% (v/v) fetal bovine serum (FBS) and 1% penicillin/streptomycin solution) and maintained in 5% CO2/95% humidified air at 37 °C.
HNEpCs were seeded at a density of 5 × 10^3 cells/well in 96-well plates (Corning, NY, USA) and cultured for 24 h before the experiment. […] The culture medium was used as a negative control, and 20% dimethyl sulfoxide (DMSO) was used as a positive control. Following 6 h of incubation, the test solutions were removed, and the cytotoxicity was determined using a commercial MTT kit. The cells were washed, and then, MTT reagent in culture medium was added for a further 3 h incubation at 37 °C. The remaining media was removed, and 200 μL DMSO was added to each well to dissolve the formazan crystals. The resulting absorbance was read at 490 nm.

[7] = system: nasal septum mucosae; test: Nasal mucosal toxicity: mucosa morphology (SEM) after intranasal dosing; conditions: SD rats, citric acid solutions (0.2-0.6%), 15 consecutive days
Method: (§1) Mucosa morphology was considered a direct indicator of nasal mucosal toxicity. […] This mucosa morphology study was performed in vivo using healthy male SD rats. The rats were lightly anesthetized with diethyl ether and intranasally administered test solutions. Generally, 0.1 mL of the corresponding solution was equally administered to the two nostrils of one rat for 15 consecutive days. Finally, 2 days after stopping intranasal administration, the rats were sacrificed by an intraperitoneal injection of urethane and their hearts were perfused with saline. The nasal septum mucosae were then carefully peeled off, fixed with 3% w/v glutaraldehyde (diluted by PBS), and dehydrated with a gradient of ethanol. Finally, the fixed nasal mucosae were dried at the CO2 critical point, sprayed with ion sputtering, and observed under SEM.

[8] = system: nasal septum mucosae; conditions: rat, in vivo
Method: as §1

[9] = cited from earlier work

In the case of parathyroid hormone (1-34) [PTH(1-34)], the “impurities of PTH(1-34)” value ([1]; 3 mg/mL in 0.008 M ABS compared with 0.032, 0.016 and 0.004 M ABS, 120 h, HPLC) is reported as “lowest amount of impurities”, the “PTH(1-34) content” value ([1]; chemical stability, 3 mg/mL in 0.032, 0.016, 0.008 and 0.004 M ABS (pH 4.0), up to 72 h, HPLC UV 214 nm) is reported as “no detectable decrease” and the “content of PTH(1-34)” value ([1]; chemical stability, 3 mg/mL in 0.063 M PBS (pH 7.4), after 72 h of incubation, HPLC UV 214 nm) is reported as 76.34%. The “isoelectric point (pI)” value [2] was about 7.77 pH.
With O=C(O)CC(O)(CC(=O)O)C(=O)O [citric acid] the “duration of enhanced permeation rate of FITC-PTH relative to control” value [3] was 60 min, the “time point of TEER reversal to the baseline level” value [4] was 40 min and the “cellular internalization of FITC-PTH (normalized to protein content)” value ([5]; 20 μg/mL FITC-PTH with 0.005%, 0.010%, 0.015% enhancer, 30 min, fluorescence 485/518 nm, n = 8) was “did not exhibit an obvious promotion effect”. The HNEpC viability ([6]; 6 h exposure, concentration of 0.1%) was 73.03%, the HNEpC viability ([6]; 6 h exposure, concentrations of 0.01% and 0.05%, vs culture medium) was “comparable with that of the negative control” and the “observations in rats during intranasal administration” value [7] was “bleeding of the nose was observed”.
For C[S+](C)[O-] [DMSO, dimethyl sulfoxide], the HNEpC viability ([6]; 6 h, 20% DMSO positive control, vs culture medium) was “statistically lower”.
In the case of “macrogol 15-hydroxystearate [Kolliphor® HS·15]”, the “observations in rats during intranasal administration” value [8] is reported as “did not induce any observed discomfort”.
In the case of salmon calcitonin, the bioavailability ([9]; intranasal peptide formulations devoid of permeation enhancers, ref Ozsoy et al., [2009]) is listed as “lower than 3%”.
In the case of nafarelin, the bioavailability ([9]; in vivo) is given as “lower than 3%”.
For Triton X-100, the “cellular internalization of FITC-PTH (normalized to protein content)” value ([5]; 20 μg/mL FITC-PTH with 0.1% Triton X-100, positive control) was “significantly promoted”.
